# Test results as given in a melting point compilation (Tetko et al.; mined from patent text by program, amines drawn as free bases though some values may be those of a salt).
row,SMILES,melting point
1,COc1ccc(NC(=O)NC2C(=O)Nc3ccccc3N(CCC(C)C)C2=O)cc1 (configuration not stated),150 to 152 °C
2,CN(C)C(=O)C1CCN(c2c(Cl)cncc2Cl)CC1,120 to 122 °C
3,Clc1cc(N2Cc3ccccc3C2)nc2ccccc12,172 to 173 °C
4,CCCn1c(=O)cc(OCC)n(Cc2ccc(-c3ccccc3-c3nnn[nH]3)cc2)c1=O,108 to 119 °C
5,CCOC(=O)CN1CCN(S(=O)(=O)c2ccc(N3CCC(NC[C@H](O)c4ccc(O)c(NS(C)(=O)=O)c4)CC3)cc2)CC1,91 to 92 °C
6,Cc1cc(-c2ccc(C(F)(F)F)cc2)cc(-c2cccc(-c3cccc(NS(=O)(=O)N4CCOCC4)c3)n2)n1,191 °C
7,CC1(C)COC(c2sccc2C2c3cc4c(cc3OCC2[N+](=O)[O-])OCO4)=N1 (configuration not stated),138 to 140 °C
8,CC(C)(C)c1cc(C2=CCCCCC2)c(O)c(C(C)(C)C)c1,78 to 80 °C
9,CC(C)(C)C(=O)C(C(CC#N)c1ccccc1)n1ccnc1 (configuration not stated),108 to 111 °C
10,CCOC(=O)C=Cc1cc(OC)ccc1-c1ccc(-c2ccc(OC)c(Cl)c2)c(C=O)c1,150 to 152 °C
11,NS(=O)(=O)Oc1cccc(-n2cnc(-c3ccccc3)c2)c1,209 to 211 °C
12,CCSC(NC(C)=O)C(=O)NCc1ccccc1 (configuration not stated),146 to 148 °C
13,O=C(O)CCOc1cccc(/C=C/c2nc3ccccc3s2)c1,177 to 178 °C
14,COc1ccc(C(=O)c2ccc(Cl)nc2)c(O)c1,138 to 139 °C
15,O=C(CC(=O)c1ccccc1C(=O)O)c1ccc(Cl)cc1,148 to 150 °C
16,COc1cccc(CNC(=O)c2nc3scc(COCc4ccc(CO)cc4)c3c(=O)[nH]2)c1,156 to 157 °C
17,CC(C)(C)c1cc(SCCC(=O)N2CCN(Cc3ccccc3)CC2)cc(C(C)(C)C)c1O,92.5 to 95 °C
18,O=C(O)CCCOc1ccc([N+](=O)[O-])cc1,116 to 118 °C
19,CCCCCCCCCCCCCCCCCC(O)c1ccc(O)c(C(=O)O)c1 (configuration not stated),102 °C
20,COc1cc2c3c([nH]c2cc1O)-c1ccccc1C3=O,> 260 °C
21,O=C(N[C@H]1C=C[C@@H](C(=O)O)C1)c1ccccc1,150 to 151 °C
22,CCOC(=O)NC(C(=O)NN(Cc1ccc(-c2nccs2)cc1)CC(O)C(Cc1ccccc1)NC(=O)C(NC(=O)OC)C(C)CC)C(C)C (configuration not stated),209 to 211 °C
23,COC(=O)C1(O)CSC(SC(C)=O)=C1Cl (configuration not stated),133 to 135 °C
24,COc1ccc(C2(C#N)C3CC4CC(C3)CC2C4)cc1 (configuration not stated),165 to 166 °C
25,Cn1c(-c2ccc(C(N)=O)cc2)cc2c(N3CCCC3)nc(N3CCCC3)nc21,175 to 180 °C

row,SMILES,melting point
1,COc1cc(Nc2c(C#N)cnc3cc(-c4cccc(CN5CCOCC5)c4)sc23)c(Cl)cc1Cl,205 to 207 °C
2,CCOC(=O)c1ccc2c(c1)CCC(=Cc1cccnc1)C2=O,112 to 114 °C
3,COc1ccc(Nc2nc(C)ncc2S(=O)(=O)c2ccc(OCc3ccccc3)cc2)c(C)n1,160 to 165 °C
4,CP(C)(=O)CNc1cc(Oc2ccc(C(F)(F)F)cc2Cl)ccc1[N+](=O)[O-],166 to 168 °C
5,COc1cc(OC)cc(-c2cc(=O)c3ccc(OCC(O)CN4CCN(c5ccccc5)CC4)cc3o2)c1 (configuration not stated),195 to 196 °C
6,CC(C)(C)OC(=O)N(CCCC(=O)NO)Cc1cc2nc(-c3cccc4[nH]ncc34)nc(N3CCOCC3)c2s1,149 to 152 °C
7,CC(=O)Nc1cc(Br)ccc1Sc1ccc([N+](=O)[O-])cc1[N+](=O)[O-],194 to 196 °C
8,CCCn1c(=O)c([N+](=O)[O-])c2n(c1=O)CCS2,189 to 191 °C
9,Nc1nc(CCCO)nc2c1ncn2C1OC(CO)C(O)C1S (configuration not stated),117 to 119 °C
10,N=C(Nc1ccc(CCNC(=O)C(F)(F)F)cc1)c1cccs1,181 to 182 °C
11,O=C1Cc2cc([N+](=O)[O-])ccc2Sc2ccccc21,171 to 172 °C
12,CC1CCn2nc(S(=O)(=O)Nc3c(Cl)cccc3Cl)nc2N1 (configuration not stated),230 to 235 °C
13,O=[N+]([O-])c1ccc(SSn2nccn2)c(C(Cl)(Cl)Cl)c1,189 °C
14,COC(=O)c1nc2n(n1)-c1cc(Cl)ccc1N(c1ccc(Cl)cc1Cl)C2,264 to 266 °C
15,COC(=O)c1ccc(-c2ccc3cc(OCc4ccc(F)cc4)c(C45CC6CC(CC(C6)C4)C5)cc3c2)cc1O,189 to 191 °C
16,CC(C)CCCC(C)C1CC(=O)C2=C3C(F)CC4CC(OC(=O)c5ccccc5)CCC4(C)C3CCC21C (configuration not stated),144 to 145 °C
17,COc1cc(OCc2ccccn2)ccc1/C=C/C(=O)CC(=O)/C=C/c1ccc2ccn(C)c2c1,191 to 192 °C
18,CN(C)CC1CCCCN1C1c2ccccc2Oc2ccccc21 (configuration not stated),81 to 83 °C
19,CC(C)n1nc(-c2sc(NC(=O)c3ccc(CNCCCN(C)C)cc3)nc2-c2ccccc2)ccc1=O,108 to 110 °C
20,Cc1ccc(C2=N[C@H](c3ccccc3)CO2)cc1C#CCN(O)C(N)=O,169 to 170 °C
21,CC(C)(C)c1cc2c(c(C(C)(C)C)c1)OP(OC1CC(C)(C)N(OC3CCCCC3)C(C)(C)C1)Oc1c(cc(C(C)(C)C)cc1C(C)(C)C)C2,140 to 144 °C
22,CCS(=O)(=O)NC1CCCCc2ccc(F)cc21 (configuration not stated),118 to 121 °C
23,CC(Oc1ccccc1-c1ccc(Cl)c(C(=O)NCC23CC4CC(CC(C4)C2)C3)c1)C(=O)O (configuration not stated),107 to 110 °C
24,O=C(c1ccccc1)N1CCC(C(Nc2ccc(F)cc2)c2ccc(F)cc2)CC1 (configuration not stated),157 to 158 °C
25,ClCc1cccc2cc(Br)ccc12,73 to 76 °C

row,SMILES,melting point
1,C[C@@H](NS(=O)(=O)c1ccc(-c2c(C#N)c3cc(Cl)ncc3n2C2CCC2)nc1)C(F)(F)F,181 to 185 °C
2,Cc1cc(C)n(-c2nnc3cc(Cl)ccc3n2)n1,174 °C
3,CCN1c2ncc(C#Cc3cccnc3)cc2C(=O)N(C)c2cccnc21,178 to 180 °C
4,OCC1OC(n2cnc3c(NC4CCCCC4)ncnc32)C(O)C1O (configuration not stated),185 to 187 °C
5,O=C(O)CC=C(c1ccccc1)c1ccc(F)cc1,98 to 100 °C
6,CC(=O)C(O)C1OC(S(=O)(=O)c2ncc(Cl)cn2)C(O)(C(C)=O)C(O)(C(C)=O)C1(O)C(C)=O (configuration not stated),180 °C
7,Cc1c(Cc2ccc(F)cc2)c(=O)oc2cc(OC(=O)N(C)c3ccccc3)ccc12,185 to 186 °C
8,Cc1c(N2CCC(C)(NC(=O)OC(C)(C)C)C2)c(F)c(N)c2c(=O)c(C(=O)O)cn(C3CC3)c12 (configuration not stated),214 °C
9,C#CCN(Cc1cc2c(=O)n(C)c(CN3CCN(c4ccccc4)CC3)nc2cc1Cl)c1ccc(C(=O)OC(C)(C)C)cc1,> 95 °C
10,Cc1ccc(NC(C)CC(=O)NC(=O)OC(C)(C)C)cc1 (configuration not stated),84 to 85 °C
11,COc1cc(CC#N)nc(N)n1,95 to 98 °C
12,CC(Cl)(Cl)C(NC(=O)c1ccc(Cl)cc1)NC(=NC#N)Nc1cccnc1Cl (configuration not stated),135 to 137 °C
13,COc1cc(Oc2cccc(C)c2)nc(C(=O)Nc2ccc(C)cc2)c1,110 to 114 °C
14,O=[N+]([O-])c1ccc2c(c1)COCC2,96 to 98 °C
15,NC(=O)OC(=O)[C@@H]1Cc2ccccc2CN1C(=O)OCc1ccccc1,136 to 138 °C
16,Cc1nc(O)c(C(=O)O)cc1Cl,291 to 294 °C
17,CC(C)(C)OC(=O)NCCNC(=O)c1cocn1,148 to 150 °C
18,CONS(=O)(=O)c1cc(Cl)ccc1Cl,127 to 128 °C
19,COc1cc(OC)c2c(=O)[nH]c(-c3cc(C)c(OCCN4CCC4)c(C)c3)nc2c1,204 to 205 °C
20,COC(=O)NNC(=S)Cc1ccc2ccccc2c1,129 to 131 °C
21,O=Cc1coc2cc(OC(=O)OCC(Cl)(Cl)Cl)c(OC(=O)OCC(Cl)(Cl)Cl)cc2c1=O,153 to 155 °C
22,OCC1OC(n2cnc3c(NC4CC=CCC4c4cccs4)ncnc32)C(O)C1O (configuration not stated),105 to 110 °C
23,COc1cccc2c(NCc3ccccc3C)nccc12,121 to 125 °C
24,CC(=O)OC12CC3CC(CC(C3)C1)C2,144 to 145 °C
25,CNCC(O)c1ccc(Cl)cc1 (configuration not stated),84 to 86 °C

row,SMILES,melting point
1,CC(=O)OCC1Cc2cc(I)ccc2N1 (configuration not stated),64 to 66 °C
2,CCOC(=O)C1=C(C)N(C)C(C)=C(C(=O)OC)C1c1ccccc1C#N (configuration not stated),175 °C
3,Cc1ccc(C)n1-c1cc(F)c(C2(O)CCSCC2)c(F)c1,125 to 126 °C
4,CC(=O)n1ccc(N2CCCC2)c1C(=O)c1cccnc1Nc1cccc(Cl)c1,170 to 173 °C
5,Oc1ccc2cc(-c3csc(-c4ccccc4)n3)ccc2c1,194 to 197 °C
6,FC(F)(F)c1ccc(Nc2ccccc2C=C(Br)Br)cc1,74 to 75 °C
7,COc1ccc(C(=O)NCCCCn2cnc3c(N)nc4ccccc4c32)c(OC)n1,175 to 177 °C
8,CCOC(=O)c1cnc2cc(F)c(F)cc2c1,135 °C
9,CCOC(=O)Cc1cccc(-c2nc(COc3ccc(CCl)cc3OC)c(C)o2)c1,95 to 96 °C
10,OCC1CCc2cc3ccccc3n2CC1 (configuration not stated),90 to 91 °C
11,O=[N+]([O-])c1cc(CBr)cc([N+](=O)[O-])c1,93 to 94 °C
12,O=C1C(Cc2ccccc2)C(C(F)(F)F)=Nc2ccccc2N1Cc1ccccc1 (configuration not stated),150 to 151 °C
13,COc1ccc(CNc2n[nH]c3ncnc(Nc4cccc(Cl)c4)c23)cc1Cl,205 to 208 °C
14,CCCCc1nc2cc[nH]c(=O)c2n1Cc1ccc(-c2ccccc2C#N)cc1,165 °C
15,Cc1c(-c2ccc(C[C@H](NC(=O)c3c(Cl)cccc3Cl)C(=O)O)cc2)c(=O)n(C)c(=O)n1C,225 to 227 °C
16,COc1cc2c(c(Cl)c1Cl)C(=O)C(c1ccc(Br)cc1)C2 (configuration not stated),202 to 203 °C
17,COc1ccc(-c2nc(S(=O)c3ccc(C)cc3)n(C3CCCCO3)c2-c2ccc(OC)cc2)cc1 (configuration not stated),162 to 164 °C
18,CC[C@@H](Cc1ccc(OC)c(C(=O)NCc2ccc(Oc3ccc(F)c(F)c3)cc2)c1)C(=O)O,118 to 120 °C
19,Cc1cc(C2=CCN(S(=O)(=O)C3(C(=O)O)CCOCC3)CC2)ccc1-c1ccccc1,211 to 213 °C
20,CC(=O)NC[C@H]1CN(c2ccc(-n3nccc3-c3ccccn3)c(F)c2)C(=O)O1,79.9 to 82.1 °C
21,CNCCc1cc2c(cc1CC(=O)c1ccc(OC)c(OC)c1C(=O)O)OCO2,176 to 179 °C
22,Clc1ccc(-c2nc(Cl)c3c(n2)CCCC3)cc1,121 °C
